Experiments:
[1] = Induction of TFEB nuclear translocation in human HeLa cells expressing EGFP at 10 uM measured at 3 hrs by fluorescence microscopic analysis; format: functional
[2] = Induction of TFEB nuclear translocation in human HeLa cells expressing EGFP at 10 uM measured at 6 hrs by fluorescence microscopic analysis; format: functional
[3] = Induction of TFEB nuclear translocation in human HeLa cells expressing EGFP at 30 uM measured at 3 hrs by fluorescence microscopic analysis; format: functional
[4] = Induction of TFEB nuclear translocation in human HeLa cells expressing EGFP at 30 uM measured at 6 hrs by fluorescence microscopic analysis; format: functional
HeLa = assay: Cytotoxicity against human HeLa cells at 30 uM; format: toxicity, cell-based

Compound	Activity [1] [%]	Activity [2] [%]	Activity [3] [%]	Activity [4] [%]	Activity (HeLa)
c1ccc2c(CCC3c4cc5c(cc4CCN3CC3CCNCC3)OCO5)c[nH]c2c1 (configuration not stated)	22	35	96	100	Toxic
Brc1ccc2[nH]cc(CCC3c4cc5c(cc4CCN3CC3CCOCC3)OCO5)c2c1 (configuration not stated)	10	30	85	95	
CC(=O)N1CCc2cc3c(cc2C1CCc1c[nH]c2ccccc12)OCO3 (configuration not stated)	6	7	8	10	
CC(C)CN1CCc2cc3c(cc2C1CCc1c[nH]c2ccccc12)OCO3 (configuration not stated)	20	20	74	82	
c1ccc2c(CCC3c4cc5c(cc4CCN3CC3CCOCC3)OCO5)c[nH]c2c1 (configuration not stated)	47	67	86	93	
Cc1ccc2[nH]cc(CCC3c4cc5c(cc4CCN3CC3CCOCC3)OCO5)c2c1 (configuration not stated)	20	30	83	85	
c1ccc2c(c1)ccn2CCC1c2cc3c(cc2CCN1CC1CCOCC1)OCO3 (configuration not stated)	5	5	8	5	
c1cnc2[nH]cc(CCC3NCCc4cc5c(cc43)OCO5)c2c1 (configuration not stated)	30	30	70	70	Toxic
COc1cc2c(cc1O)CCN(CC1CCOCC1)C2CCc1c[nH]c2ccccc12 (configuration not stated)	20	20	70	80	Toxic
COc1ccc2[nH]cc(CC[C@H]3c4cc(OC)c(OC)cc4CCN3CC3CCOCC3)c2c1	44	61	85	91	
COc1ccc2[nH]cc(CC[C@@H]3c4cc(OC)c(OC)cc4CCN3CC3CCOCC3)c2c1	23	37	74	80	
COc1cc2c(cc1OC)C(CCc1c[nH]c3ccc(F)cc13)N(CC1CCOCC1)CC2 (configuration not stated)	22	47	88	95	
c1ccc2c(CCC3c4cc5c(cc4CCN3Cc3cncnc3)OCO5)c[nH]c2c1 (configuration not stated)	10	10	20	20	
Cn1cc(CCC2c3cc4c(cc3CCN2CC2CCOCC2)OCO4)c2ccccc21 (configuration not stated)	5	5	26	26	
Fc1ccc2[nH]cc(CC[C@@H]3c4cc5c(cc4CCN3CC3CCOCC3)OCO5)c2c1	29	33	70	82	
c1ccc2c(CC[C@H]3NCCc4cc5c(cc43)OCO5)c[nH]c2c1	18	23	76	77	
COc1cc2c(cc1O)C(CCc1c[nH]c3ccccc13)N(CC1CCOCC1)CC2 (configuration not stated)	22	37	75	77	Toxic
c1ccc2c(CC[C@@H]3NCCc4cc5c(cc43)OCO5)c[nH]c2c1	30	34	89	96	
COc1cc2c(cc1F)C(CCc1c[nH]c3ccccc13)N(CC1CCOCC1)CC2 (configuration not stated)	17	31	70	79	
Clc1ccc2[nH]cc(CCC3c4cc5c(cc4CCN3CC3CCOCC3)OCO5)c2c1 (configuration not stated)	15	20	83	92	
CN1CCC(CN2CCc3cc4c(cc3C2CCc2c[nH]c3ccccc23)OCO4)CC1 (configuration not stated)	30	40	80	81	Toxic
O=CN1CCc2cc3c(cc2C1CCc1c[nH]c2ccccc12)OCO3 (configuration not stated)	6	5	6	4	
c1ccc2c(CCC3c4cc5c(cc4CCN3CC3CCCCC3)OCO5)c[nH]c2c1 (configuration not stated)	7	8	11	42	
c1ccc(COc2ccc3[nH]cc(CCC4c5cc6c(cc5CCN4CC4CCOCC4)OCO6)c3c2)cc1 (configuration not stated)	12	30	75	88	
COc1cc2c(cc1OC)C(CCc1c[nH]c3ccc(Br)cc13)N(CC1CCOCC1)CC2 (configuration not stated)	53	63	89	94	

Compound	Activity [1] [%]	Activity [2] [%]	Activity [3] [%]	Activity [4] [%]	Activity (HeLa)
CCC(=O)N1CCN(c2ccc(-n3c(=O)ccc4cnc5ccc(-c6cnc7ccccc7c6)cc5c43)cc2C(F)(F)F)CC1 [TORIN1]	100	100	100	100	
N#Cc1ccc2[nH]cc(CCC3c4cc5c(cc4CCN3CC3CCOCC3)OCO5)c2c1 (configuration not stated)	10	10	64	64	
c1cnc2[nH]cc(CCC3c4cc5c(cc4CCN3CC3CCOCC3)OCO5)c2c1 (configuration not stated)	10	10	64	64	
Fc1ccc2[nH]cc(CC[C@H]3c4cc5c(cc4CCN3CC3CCOCC3)OCO5)c2c1	56	60	90	98	
Cc1ccc2[nH]cc(CCC3NCCc4cc5c(cc43)OCO5)c2c1 (configuration not stated)	10	10	45	60	
Fc1ccc2[nH]cc(CCC3NCCc4cc5c(cc43)OCO5)c2c1 (configuration not stated)	36	54	88	92	
OCn1cc(CCC2c3cc4c(cc3CCN2CC2CCOCC2)OCO4)c2ccccc21 (configuration not stated)	5	5	8	8	
c1ccc(CN2CCc3cc4c(cc3C2CCc2c[nH]c3ccccc23)OCO4)cc1 (configuration not stated)	10	10	10	10	
Oc1cc2c(cc1O)C(CCc1c[nH]c3ccccc13)N(CC1CCOCC1)CC2 (configuration not stated)	10	10	28	60	Toxic
COc1cc2c(cc1C)C(CCc1c[nH]c3ccccc13)N(CC1CCOCC1)CC2 (configuration not stated)	18	30	76	81	
c1ccc2c(CCC3c4cc5c(cc4CCN3CCC3CCOCC3)OCO5)c[nH]c2c1 (configuration not stated)	5	5	65	80	
COc1cc2c(cc1OC)C(CCc1c[nH]c3ccc(Cl)cc13)N(CC1CCOCC1)CC2 (configuration not stated)	27	37	84	90	
COc1cc2c(cc1OC)C(CCc1c[nH]c3ccc(C)cc13)N(CC1CCOCC1)CC2 (configuration not stated)	38	53	92	91	
c1ccc2c(CCC3c4cc5c(cc4CCN3CC3CCOCC3)OCO5)csc2c1 (configuration not stated)	5	5	15	20	
COc1ccc2[nH]cc(CCC3c4cc5c(cc4CCN3CC3CCOCC3)OCO5)c2c1 (configuration not stated)	74	76	88	98	
c1ccc2c(CCC3c4cc5c(cc4CCN3Cc3ccncc3)OCO5)c[nH]c2c1 (configuration not stated)	45	50	80	90	
Oc1ccc2[nH]cc(CCC3c4cc5c(cc4CCN3CC3CCOCC3)OCO5)c2c1 (configuration not stated)	15	21	72	81	
CCN1CCc2cc3c(cc2C1CCc1c[nH]c2ccccc12)OCO3 (configuration not stated)	9	22	65	84	
CCCN1CCc2cc3c(cc2C1CCc1c[nH]c2ccccc12)OCO3 (configuration not stated)	11	12	55	80	
CC(C)CCN1CCc2cc3c(cc2C1CCc1c[nH]c2ccccc12)OCO3 (configuration not stated)	20	20	70	80	
CCOc1cc2c(cc1OC)CCN(CC1CCOCC1)C2CCc1c[nH]c2ccccc12 (configuration not stated)	17	28	75	82	
COc1cc2c(cc1OC)C(CCc1c[nH]c3ccc(O)cc13)N(CC1CCOCC1)CC2 (configuration not stated)	25	34	85	88	Toxic
c1ccc2[nH]c(CCC3c4cc5c(cc4CCN3CC3CCOCC3)OCO5)cc2c1 (configuration not stated)	5	5	39	39	
COCCN1CCc2cc3c(cc2C1CCc1c[nH]c2ccccc12)OCO3 (configuration not stated)	30	30	70	80	
NC(=O)CN1CCc2cc3c(cc2C1CCc1c[nH]c2ccccc12)OCO3 (configuration not stated)	5	5	20	20	

From ChEMBL document CHEMBL5506074, “Discovery and Optimization of Tetrahydroisoquinoline Derivatives To Enhance Lysosome Biogenesis as Preclinical Candidates for the Treatment of Alzheimer's Disease” (J Med Chem, 2024)
